Like-named read-outs stand apart in the source and are kept apart here.
Key:
[1] = biological target: FABP1; settings: known Kd value, cited from earlier work
[2] = biological target: T1, FABP1 (Mus musculus, UniProt P12710); experiment: cis-parinaroyl-CoA displacement from FABP1; assay type: binding, murine; settings: for fold stronger binding by FABP1 as compared to FABP3, FABP5, and FABP7: different displacement assays; for fold weaker binding to FABP1 than OEA: cis-parinaroyl-CoA displacement Kis; for Ki: displacement of FABP1-bound cis-parinaroyl-CoA (footnote a), 24°C, mean ± SEM, n=5, ND = no significant displacement
T1 sequence (P12710 1-127): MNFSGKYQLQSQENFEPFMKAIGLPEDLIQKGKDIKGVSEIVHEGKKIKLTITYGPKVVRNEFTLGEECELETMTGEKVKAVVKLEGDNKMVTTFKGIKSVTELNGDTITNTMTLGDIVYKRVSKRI

[3] = biological target: HSP70; settings: read-out: Kd of HSP70 binding AEA; cited from earlier work
[4] = biological target: T2, ACBP (Mus musculus, UniProt P31786); experiment: Direct binding to ACBP: intrinsic Tyr/Trp fluorescence; parameters: species or system murine; settings: ACBP 500nM
T2 sequence (P31786 1-87): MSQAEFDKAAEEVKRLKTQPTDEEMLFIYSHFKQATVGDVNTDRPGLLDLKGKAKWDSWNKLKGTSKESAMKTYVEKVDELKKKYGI

[5] = biological target: T1, FABP1; experiment: ANS displacement from FABP1; assay type: binding, murine
[6] = biological target: T1, FABP1; experiment: DAUDA displacement from FABP1; assay type: binding, murine; settings: very high AEA concentration, e.g. 9 μM; not shown
[7] = biological target: T1, FABP1; experiment: NBD-stearic acid displacement from FABP1; assay type: binding, murine; settings: not shown
[8] = biological target: T1, FABP1; experiment: Direct binding to FABP1: quenching of intrinsic Tyr fluorescence; parameters: species or system murine; settings: FABP1 500nM, AEA 3μM
[9] = in vivo; cited from earlier work
[10] = biological target: T3, SCP2 (Homo sapiens, UniProt P22307); experiment: NBD-stearic acid displacement from SCP2; assay type: binding; settings: displacement of SCP2-bound NBD-stearic acid; SCP2 500nM, NBD-stearate 500nM
T3 sequence (P22307 21-143 isoform P22307-2 limits assumed): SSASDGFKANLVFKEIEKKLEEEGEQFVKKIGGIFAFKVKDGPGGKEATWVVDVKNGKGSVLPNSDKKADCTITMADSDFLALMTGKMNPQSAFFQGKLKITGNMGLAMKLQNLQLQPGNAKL

[11] = system: FABP4; settings: cited from earlier work
[12] = biological target: T1, FABP1; experiment: NBD-AEA displacement from FABP1; assay type: binding, murine; settings: for displacement of / effect on FABP1-bound NBD-AEA (in words): FABP1 500nM, NBD-AEA 1μM
[13] = biological target: T1, FABP1; experiment: FABP1 binding of fluorescent ligands; parameters: species or system murine; settings: read-out: Kd of FABP1 binding NBD-AEA; obtained herein (not shown)
[14] = biological target: T3, SCP2; experiment: Direct binding to SCP2: intrinsic Trp fluorescence
[15] = FABP1 500nM, cis-parinaroyl-CoA 500nM

For `CC/C=C/C=C\C=C/C=C/CCCCCCCC(=O)SCCNC(=O)CCNC(=O)[C@H](O)C(C)(C)COP(=O)(O)OP(=O)(O)OC[C@H]1O[C@@H](n2cnc3c(N)ncnc32)[C@H](O)[C@@H]1OP(=O)(O)O` (relative stereo) [cis-parinaroyl-CoA], the Kd ([1]; read-out: Kd1 of FABP1 binding cis-parinaroyl-CoA) is listed as 27 ± 4 nM and the Kd ([1]; read-out: Kd2 of FABP1 binding cis-parinaroyl-CoA) is listed as 66 ± 8 nM.
With `CCCCC/C=C\C/C=C\C/C=C\C/C=C\CCCC(=O)OC(CO)CO` [2-AG, 2-arachidonoylglycerol] the “fold stronger binding by FABP1 as compared to SCP2” value [2] was at least 3 fold, the “maximal displacement of FABP1-bound cis-parinaroyl-CoA” value [2, 15] was “about 50%” and the “fold stronger binding by FABP1 as compared to FABP3, FABP5, and FABP7” value [2] was 2–15 fold.
For `CCCCC/C=C\C/C=C\C/C=C\C/C=C\CCCC(=O)NCCO` [AEA, n-6 arachidonoylethanolamide], the Kd [3] is listed as 3700 ± 500 nM, the “quenching of ACBP aromatic amino acid (Tyr) fluorescence emission (in words)” value (“quenching of ACBP aromatic amino acid” below) [4] is listed as “neither OEA nor AEA quenched” and the “displacement of FABP1-bound ANS (in words)” value [5] is listed as “did not displace”. The “maximal displacement of FABP1-bound cis-parinaroyl-CoA” value [2, 15] was “about 50%”, the “displacement of FABP1-bound DAUDA” value [6] was 13% and the “displacement of FABP1-bound NBD-stearic acid (in words)” value [7] was “did not displace”. For the same compound, the “effect on FABP1 intrinsic Tyr fluorescence emission at 304 nm (in words)” value [8] was “decreased”.
With `CCCCC/C=C\C/C=C\C/C=C\C/C=C\CCCC(=O)Nc1ccc(O)cc1` [AM404] the “maximal displacement of FABP1-bound cis-parinaroyl-CoA” value [2, 15] was “about 50%”.
For `CCCCC/C=C\C/C=C\C/C=C\C/C=C\CCCC(=O)O` [ARA, arachidonic acid], the “first-pass clearance by liver” value [9] is given as about 50%.
For `CCc1c(-c2ccccc2)c(-c2ccccc2)nn1-c1ccccc1-c1cccc(OCC(=O)O)c1` [BMS309403], the Ki [10] was 5500 ± 500 nM, the “fold stronger binding by FABP1 than FABP3” value ([2]; BMS309403) was 10 fold and the “fold stronger binding by FABP1 than FABP5” value ([2]; BMS309403) was 12–50 fold. The “maximal displacement of FABP1-bound cis-parinaroyl-CoA (in words)” value [2, 15] was “almost completely” and the “affinity of FABP4 for BMS309403” value [11] was under 2 nM.
For `C=C(C)[C@@H]1CCC(C)=C[C@H]1c1c(O)cc(CCCCC)cc1O` [Cannabidiol, cannabidiol], the “maximal displacement of FABP1-bound cis-parinaroyl-CoA” value [2, 15] was “about 50%” and the “fold stronger binding by FABP1 as compared to FABP3, FABP5, and FABP7” value [2] was 9–11 fold.
In the case of `CC/C=C\C/C=C\C/C=C\C/C=C\C/C=C\C/C=C\CCC(=O)NCCO` [DHEA, n-3 docosahexaenoylethanolamide], the “fold weaker binding to FABP1 than OEA” value [2] is reported as 4–10 fold.
In the case of `CC/C=C\C/C=C\C/C=C\C/C=C\C/C=C\CCCC(=O)NCCO` [EPEA, n-3 eicosapentaenoylethanolamide], the “fold weaker binding to FABP1 than OEA” value [2] is reported as 4–10 fold and the Ki [2] is reported as 390 ± 30 nM.
In the case of `CCCC(C)(C)c1ccc2c(c1)OC(C)(C)[C@@H]1CC=C(C)C[C@@H]21` [JWH-133], the Ki ([12]; displacement of FABP1-bound NBD-AEA (footnote b), 24°C, mean ± SEM, n=5, ND = no significant displacement) is reported as “did not displace” and the Ki [2] is reported as “did not displace”.
With `O=C(CCC/C=C\C/C=C\C/C=C\C/C=C\CCCCCNc1ccc([N+](=O)[O-])c2nonc12)NCCO` [NBD-AEA] the Kd [13] was 700 ± 100 nM.
With `CCCCCCCC/C=C\CCCCCCCC(=O)NCCO` [OEA, oleoylethanolamide] the “quenching of ACBP aromatic amino acid” value [4] was “neither OEA nor AEA quenched”, the Kd [14] was 390 nM and the “effect on SCP2 Trp fluorescence emission (in words)” value ([14]; SCP2 500nM, OEA 1.4 μM) was “significantly increased”.
For `CC(=O)Nc1ccc(Nc2nc(-c3ccc(Cl)c(Cl)c3)cs2)cc1` [SCPI1], the Ki [10] was 680 ± 60 nM.
In the case of `CCCCCc1cc(O)c2c(c1)OC(C)(C)[C@@H]1CCC(C)=C[C@@H]21` [THC, Δ^9-tetrahydrocannabinol], the “displacement of / effect on FABP1-bound NBD-AEA (in words)” value [12] is reported as “essentially all” and the “maximal displacement of FABP1-bound cis-parinaroyl-CoA” value [2, 15] is reported as “about 50%”.
With `CCCCC/C=C\C/C=C\C/C=C\C/C=C\CCCC(=O)Nc1ccc(O)cc1C` [VDM11] the “maximal displacement of FABP1-bound cis-parinaroyl-CoA” value [2, 15] was “about 50%”.
With `CCCCCCCC/C=C\CCCCCCCC(=O)SCCNC(=O)CCNC(=O)[C@H](O)C(C)(C)COP(=O)(O)OP(=O)(O)OC[C@H]1O[C@@H](n2cnc3c(N)ncnc32)[C@H](O)[C@@H]1OP(=O)(O)O` [oleoyl-CoA] the “quenching of ACBP aromatic amino acid” value [4] was “significantly quenched”.
In the case of SR-144528, the “displacement of / effect on FABP1-bound NBD-AEA (in words)” value [12] is reported as “increased the fluorescence”.

— paper PMC5322802 (Biochemistry, 2016)
